Measurements taken from a melting point compilation (Tetko et al.; mined from patent text by program, amines drawn as free bases though some values may be those of a salt).

SMILES	melting point [°C]
CCc1c(-c2ccc(OC)cc2)c2c(C(=O)N(C)CCN(C)C)c(C(=O)O)c3cc(OC)cc1n32	221 to 223
CS(=O)CCNC(=O)c1cccc(-c2cccc(Oc3cc(Cl)cc(Cl)c3)n2)c1 (configuration not stated)	158 to 159
CN(C)CCCNC(=O)N1CCN(c2ccccc2)CC1	91 to 95
CCOC(=O)c1cc(=O)c(Sc2ccc(OC)cc2)co1	90 to 92
O=C(O)Cc1cccc(Oc2ccc(Cl)cc2)c1[N+](=O)[O-]	167 to 170
CC(C)CCOC(=O)c1cc2c([nH]c3ccccc32)c(-c2ccc3c(n2)C(=O)C(NC(=O)CCl)=CC3=O)n1	280 to 284
CC(C)C(=O)N[C@@H](CSC(=O)C(C)C)C(=O)NCCSC(=O)c1ccccc1	141 to 143
CC(C)C(c1cncnc1C=NO)N(C)C(=O)Cc1ccccc1 (configuration not stated)	171 to 172
NC(=O)N1CCCC(=O)c2ccc(Cl)cc2CCC1=O	182 to 184
O=C1CCc2sccc21	87 to 88
O=c1[nH]c2cc(Cl)ccc2n1C1CCNCC1	200 to 206
NC(=O)NCCSc1ccc2nccn2n1	216 to 217
O=c1cc(-c2ccc(O)cc2)oc2ccncc12	306 to 308
CCCn1nc2c(N)nc3ccccc3c2c1CC(C)(C)NC(=O)CC	158 to 159
CC(C)(C)c1ccc(S(=O)(=O)N2c3ccccc3C[C@H]2C(=O)NCc2ccc(Cl)cc2)cc1	69
N#CCON=C(CCN1CCN(c2ccccn2)CC1)c1ccccc1	127 to 128
CCCCNC(=O)c1nc2ccc(OC)cc2[nH]1	125 to 126
O=C(O)Cn1c(-c2cc(Cl)ccn2)nc2cccnc21	218 to 220
CCOC(=O)CN1C(=O)C(N[C@H]2CCCCNC2=O)CCc2ccccc21 (some centres not stated)	148 to 150
O=C(Cc1c[nH]cn1)NC(P(=O)(O)O)P(=O)(O)O	247 to 250
CC(C)(C)NC(=O)OC1CCOC1=O (configuration not stated)	104 to 106
NNc1ncc(-c2ccccc2)cn1	155
CCOC=Nc1[nH]nc(Nc2cccc(OC)c2)c1C#N	181 to 183

SMILES	melting point [°C]
COC(=O)c1ccc(CC(C)NCC(O)c2ccc(O)c(O)c2)cc1 (configuration not stated)	169
COC(=O)N1C(=O)c2ccccc2C1=O	184
CC(=O)c1sc2c(Br)cccc2c1C	105 to 107
CC(=O)SC(CC(=O)c1ccc(C)cc1C)C(=O)O (configuration not stated)	101 to 102
Cc1nn2c(c1Cl)N=NC2CCNC(=O)c1ccccc1C(=O)O (configuration not stated)	162 to 166
CNS(=O)(=O)C(=O)CCOc1cc(Oc2nn(C)c(C(F)(F)F)c2Cl)ccc1[N+](=O)[O-]	170 to 172
CC(=O)c1nc(-c2ccccn2)[nH]c1C	145 to 147
Cc1ccc(CNc2ncnc3c(N4CCOCC4)nc(N4CCC(N(C)C)CC4)nc23)cc1	142 to 144
CC(C)(O)CCn1c(=O)n(C(=O)N[C@H](C(N)=O)C(C)(C)C)c2ccccc21	248
CN[C@H]1CC[C@H](CO)CC1	87 to 88
CC(C)(C)OC(=O)NCCCCC(=O)Nc1cc(C(=O)O)ccc1Cl	203
COc1cccc(C(C[N+](=O)[O-])SC(=S)N(C)C)c1OC(C)=O (configuration not stated)	124 to 126
O=c1oc2ccccc2cc1CCN1CCC(Nc2nc3ccccc3n2Cc2ccc(F)cc2)CC1	168
CC(=O)N(C)c1nc(CN2CCN(C(c3ccccc3)c3ccccc3)CC2)cs1	140 to 142
CCCN(CCC)C(=O)C(CCC(=O)NC)NC(=O)C=Cc1ccco1 (configuration not stated)	112 to 113
CCCCCCCCCCCCCCCCCCS(=O)(=O)c1cc(C(=O)O)c2c(c1)c(=O)on2C	177 to 179
Cc1ncoc1C(C)(N)c1ccoc1 (configuration not stated)	82.5 to 83.5
Cc1ccc(C)c2c(OCCNC(=O)OC(C)(C)C)noc12	78 to 79
O=C(Nc1cccc(C2CN3CCSC3=N2)c1)c1ccc(Cl)nc1 (configuration not stated)	135 to 138
CN(C)c1ccc(S(=O)(=O)N2CCCC2=O)cc1	202 to 204
O=C(NN=Cc1ccc2ccccc2n1)c1cccc([N+](=O)[O-])c1	217 to 218
Cc1ccc(NC(=O)C(C)(C)C)c(-c2cncc(Br)n2)c1	74 to 76
CCOC(=N)N1Cc2ccccc2-c2ccccc2C1	68 to 71

SMILES	melting point [°C]
O=C1c2ccccc2CN1c1ccc2c(c1)OCCO2	170 to 176
[N-]=[N+]=NC1CCc2ccccc2C1NC(=O)OCc1ccccc1 (configuration not stated)	104
O=C(NCCCCCCCNC(=O)c1ccc2c(c1)OCO2)c1ccc2c(c1)OCO2	151 to 152
CN1CCC(c2c[nH]c3ccc(C(=O)c4ccc(F)cc4)cc23)CC1	89
CCOc1cc2c(Nc3ccc(OC)cc3)c(CO)cnc2nc1C	193 to 197
Cc1cc(-c2ccc(C(F)(F)F)cc2)cnc1N	74
CC(C)(C)C(NC(=O)c1ccc(Cl)cc1)NC(=NC#N)Nc1cc(F)cc(F)c1 (configuration not stated)	196 to 198
CCOC(=O)c1ccc(-n2cncn2)cc1	97 to 99
O=C(c1cc(=O)c2cc(O)ccc2[nH]1)N1CCC(Cc2ccc(F)cc2)CC1	190
O=C1NC(O)(C(Cl)(Cl)Cl)NC1=O	245
CC1=NN(c2ccccc2)C(=O)C1C=O (configuration not stated)	178 to 180
Cn1cc(CN2CCC[C@H]2CO)c2ccccc21	46 to 48
O=C(Cc1cccc(C(F)(F)F)c1)Nc1c(Br)cccc1Br	169 to 170
COc1cc(CCNCc2ccccc2)c(CC(=O)O)cc1OC	213 to 214
N#Cc1c(N)cccc1[N+](=O)[O-]	196 to 198
CN(C)CCCOc1ccc(-c2nnc(Cc3ccc(Oc4ccccc4)cc3)o2)cc1	156 to 158
CC(=CC(=O)Nc1ccccc1OCCCC(=O)O)c1ccc2c(ccn2C(c2ccccc2)c2ccccc2)c1	158 to 162
CCC(C)(O)CCCCc1cccc(CCc2ccc(O)c(CO)c2)c1 (configuration not stated)	101 to 104
CC1CCCCN1CCNc1ccnc2cc(Cl)ccc12 (racemic)	133 to 134
CCN(CC)CC(C)N1c2ccccc2Sc2ccc(C(=S)NCCC(C)C)cc21 (racemic)	80
CNC(=O)Oc1ccc(NC(=O)C(Cl)Cl)c(C)c1	199 to 201

The next lines start with the values.

melting point [°C]	SMILES
184 to 185	CC(C)Oc1cc(CCC(=O)NS(=O)(=O)c2ccccc2)n(Cc2ccc(Cl)cc2Cl)n1
127 to 128	CCCn1cc(-c2c(-c3ccccc3F)nn3ccncc23)ccc1=O
179 to 181	COc1ccc(-c2cn3c(n2)-c2ccccc2CC3)cc1
80 to 82	CCCCCCCCCCCCCCOc1ccc(C(=O)NCCc2ccccn2)cc1
152 to 153	CCNc1cccnc1N1CCN(C(=O)c2ccc(C(=O)N3CCN(CCO)CC3)cc2)CC1
110 to 112	CCOC(=O)/C=C/c1ccc2cc(OCc3ccccc3)ccc2c1
191 to 193	CC(C)(C(=O)NC1CCCCC1)c1ccc(S(=O)(=O)/C=C/C#N)cc1
71 to 74	CCCCCCC(O)c1ccc2cc(OC)ccc2c1 (configuration not stated)
144 to 146	COc1cn2nc(OCCCN3CCN(C(c4ccccc4)c4ccccc4)CC3)ccc2n1
56.5	CS(=O)(=O)[C@H]1CN(Cc2ccccc2)C[C@@H]1S(C)(=O)=O
230 to 231	Cc1c(Cl)cc2c(c1Cl)OC(C(F)(F)F)C(C(=O)O)=C2 (configuration not stated)
97	COc1ccc(Cl)cc1C(=O)NC1COc2cc(C)ccc2C1 (configuration not stated)
143 to 144	Cc1c(C(=O)N[C@@H](Cc2ccc(OCc3ccccc3)cc2)C(=O)O)oc2cc(-c3ccc(Cl)cc3)ccc12
85 to 87	CCOc1cc2ncc(C#N)c(Nc3ccc(OCc4ccccc4)c(Cl)c3)c2cc1NC(=O)CC(CN1CCCC1)N1CCCC1 (configuration not stated)
100 to 102	Cn1c(N2CCOCC2)nc(C(=O)NCc2ccc(Cl)c(Cl)c2)c(O)c1=O
170 to 172	C=CC(=O)N1C/C(=C\c2ccc([N+](=O)[O-])cc2)C(=O)/C(=C/c2ccc([N+](=O)[O-])cc2)C1
148 to 150	COc1cc(OC)c(/C=C/S(=O)(=O)Cc2ccc(OC)c(N)c2)c(OC)c1
119 to 120	O=C(O)C(Cc1ccc(OCCN2c3ccccc3Oc3ccccc32)cc1)Oc1ccccc1 (configuration not stated)

melting point [°C]	SMILES
100	O=S(=O)(c1ccccc1)N1CCCC1c1ccc(F)cc1 (racemic)
226	CCCC1=C([N+](=O)[O-])C(c2cccc3ccccc23)c2c[nH]nc2N1 (configuration not stated)
161 to 163	CCOC(=O)/C(F)=C/c1ccc(N2C[C@H](CNC(C)=O)OC2=O)cc1
93 to 94	O=c1oc(-c2cccc(-c3ccccc3)c2)cc(O)c1SCCc1ccccc1
154 to 156	COc1ccc(-n2nnnc2C(F)(F)F)cc1C1=CC2(CCCN(C(=O)c3ccccc3)C2)OC1 (configuration not stated)
145 to 147	CC(C)(C)CC(=O)NCc1cccc2c1C(=O)N(C1CCC(=O)NC1=O)C2=O (configuration not stated)
99 to 101	COc1cc(C#N)ccc1OCCCBr
120 to 121	O=C(N[C@H]1C(=O)N[C@@H]1CCO)OCc1ccccc1
70 to 71	COC(=O)CCC(CSc1ccc2ccccc2c1)C(=O)O (configuration not stated)
177 to 179	Cn1cc2c(Cl)cc(-c3ccccc3)nc2n1
208 to 209	Cc1ccc2c(c1)N=C(Cl)c1cscc1O2
71 to 74	Cc1nnc(F)c(-c2c(F)cc(F)cc2F)c1-c1cccs1
174	CCC(O)(CC(=O)OC(C)(C)C)c1ccn(Cc2cc3cc(OCc4ccccc4)c(F)cc3nc2I)c(=O)c1 (configuration not stated)
104 to 105	COC(=O)c1cc(OC(F)F)cnc1C1=NC(C)(C(C)C)C(=O)N1 (configuration not stated)
174 to 176	Cc1nc(C)c(CO)c(-c2ccc(F)cc2)n1
140 to 143	CC(Oc1ccc(Oc2ncc(C(F)(F)F)cc2Cl)cc1)C(=O)Nc1ccc(C(F)(F)F)cc1 (configuration not stated)
187 to 188	CC(C)c1ccccc1Sc1c(O)cc(-c2ccc(OCC3CCCCC3)cc2)oc1=O
